Laboratory results taken from BindingDB's records for doi:10.7270/Q27W69N8 (Srmlsc, 2009).
“And” between values parts separate entries of the source, which are not always exact repeats. Equal entries are not always repeated. Structures can show the parent of a compound that is named as a salt.

Each compound was assayed against T1, M17 leucyl aminopeptidase (Plasmodium falciparum (isolate 3D7), UniProt Q8IL11) (assay: P. falciparum M17LAP inhibitors, primary screen, biochemical, fluorogenic H-Leu-NHMec substrate, 1536-well (AID 1619)).
T1 sequence (Q8IL11 whole entry): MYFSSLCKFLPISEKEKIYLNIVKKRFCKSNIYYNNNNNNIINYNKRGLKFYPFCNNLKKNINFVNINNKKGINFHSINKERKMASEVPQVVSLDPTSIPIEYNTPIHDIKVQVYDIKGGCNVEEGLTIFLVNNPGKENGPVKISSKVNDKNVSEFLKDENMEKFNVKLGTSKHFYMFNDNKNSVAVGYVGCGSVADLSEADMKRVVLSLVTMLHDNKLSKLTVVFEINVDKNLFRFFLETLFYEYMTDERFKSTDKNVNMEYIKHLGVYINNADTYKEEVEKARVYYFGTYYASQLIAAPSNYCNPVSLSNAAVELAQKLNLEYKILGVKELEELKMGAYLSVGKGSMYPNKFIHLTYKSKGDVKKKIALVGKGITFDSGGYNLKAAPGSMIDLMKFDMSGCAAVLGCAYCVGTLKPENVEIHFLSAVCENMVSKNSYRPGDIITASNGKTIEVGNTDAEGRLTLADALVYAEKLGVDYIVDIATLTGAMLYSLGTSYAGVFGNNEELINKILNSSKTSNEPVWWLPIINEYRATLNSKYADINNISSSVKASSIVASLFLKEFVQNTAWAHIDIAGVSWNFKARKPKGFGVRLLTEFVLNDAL

Structure (SMILES) | IC50
O=NCc1c[nH]c2ccccc12 [MLS000104363] | 13.2 µM
C=C(c1ccc(OC)cc1)c1sc(=S)n(CCC(=O)O)c1O | 30.1 µM and 27.4 µM
Cc1ccc(C2C(C(=O)c3ccc(Br)cc3)C(=O)C(=O)N2Cc2ccco2)o1 (stereo not given) [(4Z)-4-[(4-bromophenyl)-hydroxy-methylene]-1-(2-furfuryl)-5-(5-methyl-2-furyl)pyrrolidine-2,3-quinone] | 66.4 µM
CCOc1ccccc1C1c2c(-c3ccccc3)noc2N=C(N)C1C#N (stereo not given) [6-amino-4-(2-ethoxyphenyl)-3-phenyl-2,4-dihydroisoxazolo[5,4-b]pyridine-5-carbonitrile] | 52.7 µM
Cc1[nH][nH]c(=O)c1CCC(=O)NN=CC=Cc1ccccc1 | 51.4 µM
COc1ccc(CN=Nc2nc(O)c(CC(=O)O)s2)cc1OCc1ccc(Cl)cc1 [2-[2-[2-[[3-[(4-chlorophenyl)methoxy]-4-methoxy-phenyl]methylidene]hydrazinyl]-4-oxidanylidene-1,3-thiazol-5-yl]ethanoic acid] | 20.3 µM
Cc1ccc(-c2ccc([CH+][N-]Nc3nc(O)c(CC(=O)O)s3)o2)c([N+](=O)[O-])c1 [SMR000135699] | 101 µM
O=C(O)c1ccc(N=NCc2ccc(C(F)(F)F)cc2)cc1 [sulfuric acid;4-[(N'E)-N'-[4-(trifluoromethyl)benzylidene]hydrazino]benzoic acid] | 46.3 µM
CCc1nnc(NS(=O)(=O)c2ccc(N=CCC(=O)c3cccc4ccccc34)cc2)s1 [SMR000172027] | 10.1 µM
O=C(Nn1c(O)csc1=S)C(=O)Nn1c(O)csc1=S [SMR000349781] | 20.5 µM
CC(=NNC(=O)Cc1c(C)[nH][nH]c1=O)c1cccs1 [SMR000305285] | 3.56 µM
N#CC1C(=N)Oc2[nH]nc(-c3ccccc3)c2C1c1ccsc1 (stereo not given) | 64.5 µM
CCCOc1ccc(-n2c(O)cc(SCCN)c2O)cc1 [3-(2-aminoethylthio)-1-(4-propoxyphenyl)pyrrolidine-2,5-dione;hydrochloride] | 12 µM
Cc1[nH][nH]c(=O)c1CCC(=O)NN=Cc1ccccc1[N+](=O)[O-] | 3.14 µM
COc1ccc(CN=Nc2ccc(C(=O)O)cc2)cc1Br [4-[2-[(3-bromo-4-methoxyphenyl)methylidene]hydrazinyl]benzoic acid] | 23.4 µM
Cc1[nH][nH]c(=O)c1CCC(=O)NN=Cc1ccc(Cl)c(Cl)c1 | 15 µM
CN(C)c1ccc(/N=N/c2ccccc2C(=O)OCC(=O)N(C)C2CCCCC2)cc1 [[2-[cyclohexyl(methyl)amino]-2-oxidanylidene-ethyl] 2-[[4-(dimethylamino)phenyl]diazenyl]benzoate] | 15.2 µM
CCOc1ccc(-n2c(O)cc(Sc3nnc(-c4ccccc4)[nH]3)c2O)cc1 [MLS000765380] | 11.1 µM
COc1cc(CN=Nc2ccc(Cl)c(C(=O)O)c2)ccc1OC(=O)c1cccs1 | 55.5 µM
O=C1CCCC2=Nc3[nH]c(=S)[nH]c(=O)c3C(c3ccc(Br)cc3)C12 (stereo not given) [5-(4-bromophenyl)-2-thioxo-2,3,5,8,9,10-hexahydropyrimido[4,5-b]quinoline-4,6(1H,7H)-dione] | 16.7 µM
O=C(O)c1ccc(CN=Nc2ccc(F)cc2F)cc1 [SMR000364892] | 99.4 µM
O=NCc1cn(CC(=O)N2CCOCC2)c2ccccc12 [2-[3-(hydroxyiminomethyl)indol-1-yl]-1-morpholin-4-ylethanone] | 78.9 µM
Cc1[nH][nH]c(=O)c1CCC(=O)NN=Cc1ccc(Cl)cc1 | 52.6 µM
CCOC(=O)C1C(=O)C(=Cc2ccc(OCC(=O)O)c(OCC)c2)SC1=Nc1ccc(OC)cc1 (stereo not given) [MLS000704394] | 21.3 µM
CCOc1ccc(-n2c(O)cc(SCCN)c2O)cc1 [3-(2-Amino-ethylsulfanyl)-1-(4-ethoxy-phenyl)-pyrrolidine-2,5-dione] | 23.6 µM
Cc1ccc(Nc2nnc(SCC(=O)C(C#N)c3nc4ccccc4[nH]3)s2)c(C)c1 (stereo not given) [2-(1,3-dihydrobenzimidazol-2-ylidene)-4-[[5-(2,4-dimethylanilino)-1,3,4-thiadiazol-2-yl]thio]-3-oxobutanenitrile] | 6.03 µM
CCOc1cc(C2c3c(-c4ccccc4)n[nH]c3OC(=N)C2C#N)ccc1O (stereo not given) [SMR000019337] | 77.1 µM
O=C1N=c2ccccc2=C1NNc1ccc(C(=O)O)cc1 [4-[2-(2-oxidanylideneindol-3-yl)hydrazinyl]benzoic acid] | 84.3 µM

Structure (SMILES) | IC50
Cc1nc2c([nH]1)C1(CCN(Cc3ccccc3)CC1)C(C#N)C(=N)O2 (stereo not given) [MLS000047918] | 63.2 µM
COc1ccc2sc(-n3c(O)c4c(c3O)CC(C)=CC4)nc2c1 | 35 µM
C/C(=C\c1ccco1)C1c2c(-c3ccc(C)cc3)n[nH]c2OC(=N)C1C#N (stereo not given) [MLS000519110] | 132 µM
COc1cc(CN=Nc2ccc(Cl)c(C(=O)O)c2)ccc1OC(=O)c1ccco1 [2-chloro-5-[2-[[4-[2-furanyl(oxo)methoxy]-3-methoxyphenyl]methylidene]hydrazinyl]benzoic acid] | 48.8 µM
O=C1c2ccccc2C(=O)C1C1=NC(C(=O)O)c2c1c(O)n(-c1ccc(Cl)cc1)c2O (stereo not given) [MLS000331181] | 71.6 µM
Cc1c(C)c(O)c(C=CCCC#CCCCC#CCO)c(C)c1O [docebenone] | 53.4 µM
O=NCc1ccc(OCc2ccccc2)c(C(=O)O)c1 [5-(hydroxyiminomethyl)-2-phenylmethoxybenzoic acid] | 16.4 µM
Cc1noc(NS(=O)(=O)c2ccc(N=CCC(=O)c3ccc4c(c3)OCO4)cc2)c1C [4-[[(Z)-3-(1,3-benzodioxol-5-yl)-3-oxoprop-1-enyl]amino]-N-(3,4-dimethyl-5-isoxazolyl)benzenesulfonamide] | 13.9 µM
C=c1cc2[nH]c(=O)c(=Cc3cccn3CCCOc3ccc(OC)cc3)c(=N)n2o1 | 10.9 µM
COc1ccc(NC(=O)CSc2nc(C)cc(=O)[nH]2)cc1 [N-(4-methoxyphenyl)-2-[(4-methyl-6-oxo-5H-pyrimidin-2-yl)sulfanyl]acetamide] | 3.09 µM
Cc1ccc(/N=C2/S/C(=C\c3cn(CC(=O)O)c4ccccc34)C(=O)N2C)cc1 [2-[3-[(Z)-[3-methyl-2-(4-methylphenyl)imino-4-oxo-5-thiazolidinylidene]methyl]-1-indolyl]acetic acid] | 11.4 µM
O=C1c2ccccc2C(=O)C1C1=NC(C(=O)O)c2c1c(O)n(-c1ccccc1)c2O (stereo not given) [SMR000168620] | 68 µM
O=C(O)c1cc(N=NCc2ccc(OCc3ccccc3)cc2)ccc1Cl [SMR000364895] | 20 µM
Cc1ccc(-c2n[nH]c3c2C(c2cccnc2)C(C#N)C(=N)O3)cc1 (stereo not given) [6-amino-3-(4-methylphenyl)-4-pyridin-3-yl-1,4-dihydropyrano[2,3-c]pyrazole-5-carbonitrile] | 25.8 µM
CCOc1ccccc1-n1c(O)cc(Sc2nnc(-c3ccccc3)[nH]2)c1O [1-(2-ethoxyphenyl)-3-[(5-phenyl-4H-1,2,4-triazol-3-yl)thio]-2,5-pyrrolidinedione] | 8.97 µM
C=c1[nH]n(CCC#N)c(=O)c1=Cc1ccc(N(C)C)cc1 [3-[(4E)-4-[[4-(dimethylamino)phenyl]methylidene]-3-methyl-5-oxo-1-pyrazolyl]propanenitrile] | 120 µM
COc1cccc(C=NNC(=O)Cc2c(C)[nH][nH]c2=O)c1O [N'-[(E)-(5-methoxy-6-oxocyclohexa-2,4-dien-1-ylidene)methyl]-2-(3-methyl-5-oxo-1,4-dihydropyrazol-4-yl)acetohydrazide] | 92.1 µM
COc1ccc(NC(=O)CSc2cc(O)n(-c3ccc4c(c3)OCCO4)c2O)cc1 [2-[1-(2,3-dihydro-1,4-benzodioxin-6-yl)-2,5-bis(oxidanylidene)pyrrolidin-3-yl]sulfanyl-N-(4-methoxyphenyl)ethanamide] | 16.1 µM
CC(CCC1CC(C)OC1=O)N=Nc1nc(-c2ccccc2)cs1 (stereo not given) [SMR000204131] | 30.8 µM
CCOC(O)c1oc2c(c(=O)c1-c1nncn1-c1ccccc1)C=CC(=O)C2=O (stereo not given) [ethyl 7,8-dihydroxy-4-oxo-3-(4-phenyl-4H-1,2,4-triazol-3-yl)-4H-chromene-2-carboxylate] | 6.58 µM
Cc1[nH][nH]c(=O)c1CCC(=O)NN=Cc1ccco1 | 69.2 µM
CN1C(=O)/C(=C/c2ccc(-c3ccccc3[N+](=O)[O-])o2)S/C1=N/c1ccc(Cl)c(C(=O)O)c1 [2-Chloro-5-[3-methyl-5-[1-[5-(2-nitro-phenyl)-furan-2-yl]-meth-(Z)-ylidene]-4-oxo-thiazolidin-(2Z)-ylideneamino]-benzoic acid] | 6.24 µM
Cc1[nH][nH]c(=O)c1CCC(=O)NN=Cc1cccc(Cl)c1 [N'-[(1Z)-(3-chlorophenyl)methylene]-3-(3-methyl-5-oxo-4,5-dihydro-1H-pyrazol-4-yl)propanohydrazide] | 20.9 µM
CC(C=NNC(=O)Cc1c(C)[nH][nH]c1=O)=Cc1ccccc1 [2-(3-methyl-5-oxidanylidene-1,4-dihydropyrazol-4-yl)-N-[[(E)-2-methyl-3-phenyl-prop-2-enylidene]amino]ethanamide] | 52.8 µM
N#CC1C(=N)Oc2[nH]nc(-c3ccc(F)cc3)c2C1c1cccnc1 (stereo not given) [MLS000043841] | 61.2 µM
CCCc1[nH]nc2c1C(CCc1ccccc1)C(C#N)C(=N)O2 (stereo not given) [6-azanyl-4-(2-phenylethyl)-3-propyl-2,4-dihydropyrano[2,3-c]pyrazole-5-carbonitrile] | 55.7 µM
O=C1C=C/C(=C/NN2C(=O)C3C4C=CC(CC4)C3C2=O)C=C1O (stereo not given) [SMR000207592] | 34.3 µM
